Patent US9409952B2, “Peptide-compound cyclization method” (Chugai Seiyaku Kabushiki Kaisha, priority 2011, dated 2016)
Read-outs that look alike come from different tables or passages of the source. Starred links: 1 amine or outer side, 2 acyl side, 3 side chain; linkers in the order of their positions; H or OH if unused. Positions of bridges follow the written chain, without caps; N, C: chain ends. Non-standard residues stand in square brackets, D forms with d. Residues, ends and D or L forms follow the SMILES beside them. *: point of attachment. Phe(3-(CH2)4CO) = O=C([C@H](Cc1cccc(CCCCC(=O)[*:3])c1)N[*:1])[*:2]; NMeF = CN[C@@H](Cc1ccccc1)C(=O)O; NMeI = CC[C@H](C)[C@H](NC)C(=O)O; NMeβAla = CN(CCC(=O)[*:2])[*:1]; NMeL = CN[C@@H](CC(C)C)C(=O)O; NMeV = CN[C@H](C(=O)O)C(C)C; NMeS = CN[C@@H](CO)C(=O)O; NMeA = CN[C@@H](C)C(=O)O; Piperidide = C1CCN(*)CC1; β3hA = C[C@H](N)CC(=O)O; Abu = CC[C@H](N)C(=O)O; Sar = CNCC(=O)O

Key:
[1] = Metabolic stability in human hepatic microsome; type: in vitro ADME; conditions: microsomes
[2] = PAMPA (parallel artificial membrane permeability assay); type: in vitro ADME; conditions: for Papp at 18 hours, 50 µM: PAMPA
Outline: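 Artificial membrane was 10% (w/v) egg lecithin plus 0.5% (w/v) cholesterol in dodecane on a PVDF filter. A 10 mM DMSO stock was added at 0.5% (v/v) to donor buffer (50 mM MOPSO, pH 6.5, 5.0% glycocholic acid). After 18 h at 37 °C, LC/MS or LC/UV gave donor and acceptor levels for Pe.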

[3] = pH 7.4, human hepatic microsome, NADPH(+), read-out: CL NADPH(+)
[4] = membrane permeation rate (Pe), 50 mM MOPSO buffer pH 6.5 with 5.0% glycocholic acid, 37° C., 18 hours, read-out: iPAMPA Pe

Compound	microsomal CLint at 1 uM [1, 3] [µL/min/mg]	iPAMPA Pe ([2]; membrane permeation rate (Pe), 50 mM MOPSO buffer pH 6.5 with 5.0% glycocholic acid, 37° C., 18 hours)	Papp at 18 hours, 50 µM [2, 4] [×10⁻⁶ cm/s]	microsomal CLint at 1 uM ([1]; human, pH 7.4, CL NADPH(+)) [µL/min/mg]	Papp at 18 hours, 50 µM ([2]; pH 6.5) [×10⁻⁶ cm/s]
CC[C@H](C)[C@@H]1NC(=O)[C@H]([C@@H](C)O)NC(=O)[C@H](C)N(C)C(=O)[C@H](CC(C)C)N(C)C(=O)[C@H](Cc2ccccc2)N(C)C(=O)[C@H](Cc2ccccc2)N(C)C(=O)[C@H](C)N(C)C(=O)[C@H](CC(C)C)N(C)C(=O)[C@@H](C(C)C)NC(=O)C[C@@H](C(=O)N2CCCCC2)NC1=O [DP-172] ([dV][NMeL][NMeA][NMeF][NMeF][NMeL][NMeA]TID-Piperidide; lactam N-10)	25	7.0E−05	–	–	–
CC[C@H](C)[C@@H]1NC(=O)[C@H](Cc2ccccc2)N(C)C(=O)[C@H](Cc2ccccc2)NC(=O)[C@H](CC(C)C)N(C)C(=O)[C@H](C(C)C)NC(=O)[C@H](CC(C)C)NC(=O)[C@H](C)N(C)C(=O)CNC(=O)CCCCc2cccc(c2)C[C@@H](C(=O)N2CCCCC2)NC(=O)[C@H]([C@@H](C)O)NC(=O)[C@H](CC(C)C)NC(=O)[C@H](C)N(C)C1=O [DP-893] (G[NMeA]LV[NMeL]F[NMeF]I[NMeA]LT[Phe(3-(CH2)4CO)]-Piperidide; lactam N-12)	86	–	5.3	–	–
CC[C@H](C)[C@@H]1NC(=O)CCN(C)C(=O)C[C@@H](C(=O)N2CCCCC2)NC(=O)[C@H](Cc2ccccc2)N(C)C(=O)[C@H](CC(C)C)NC(=O)[C@H](CC(C)C)N(C)C(=O)[C@H](CC(C)C)NC(=O)[C@H]([C@@H](C)O)NC(=O)[C@H](Cc2ccccc2)NC(=O)[C@H](C(C)C)N(C)C1=O [DP-425] ([NMeβAla]I[NMeV]FTL[NMeL]L[NMeF]D-Piperidide; lactam N-10)	150	–	27	–	–
CC(C)C[C@H]1C(=O)N(C)[C@@H](C(C)C)C(=O)N[C@@H](C(C)C)C(=O)N(C)CC(=O)N(C)[C@@H](C)C(=O)N[C@@H]([C@@H](C)O)C(=O)N(C)[C@@H](C)C(=O)N[C@H](C(=O)N2CCCCC2)CC(=O)N(C)[C@@H](C)C(=O)N(C)[C@@H](C)C(=O)N(C)[C@@H](Cc2ccccc2)C(=O)N[C@@H](C)C(=O)N1C [DP-410] ([NMeA][NMeA][NMeF]A[NMeL][NMeV]V[Sar][NMeA]T[NMeA]D-Piperidide; lactam N-12)	19	–	1.4	–	–
CC[C@@H]1NC(=O)[C@H](CO)N(C)C(=O)[C@H](CC(C)C)N(C)C(=O)[C@H](CC(C)C)N(C)C(=O)[C@H](CC(C)C)N(C)C(=O)[C@@H](CC(C)C)NC(=O)[C@H](C)NC(=O)[C@H](CC(C)C)N(C)C(=O)[C@H](C)NC(=O)[C@H](CC(C)C)N(C)C(=O)C[C@H](C)NC1=O [DP-650] (cyclo(A[NMeL]A[dL][NMeL][NMeL][NMeL][NMeS][Abu][β3hA][NMeL]))	33	–	26	–	–
CC[C@H](C)[C@H]1C(=O)N[C@H](C(=O)N2CCCCC2)CC(=O)N[C@H](C)C(=O)N[C@@H](Cc2ccccc2)C(=O)N(C)[C@@H](C)C(=O)N(C)[C@@H](C(C)C)C(=O)N[C@@H]([C@@H](C)O)C(=O)N(C)CC(=O)N(C)[C@@H](CC(C)C)C(=O)N[C@@H](C)C(=O)N1C [DP-135] ([dA]F[NMeA][NMeV]T[Sar][NMeL]A[NMeI]D-Piperidide; lactam N-10)	15	–	5.2	–	–
CC(C)C[C@H]1C(=O)N(C)[C@@H](Cc2ccccc2)C(=O)N[C@@H](C)CC(=O)N[C@H](C(C)C)C(=O)N[C@@H](C)C(=O)N[C@@H]([C@@H](C)O)C(=O)N(C)[C@@H](C)C(=O)N[C@@H](Cc2ccccc2)C(=O)N1C [DP-796] (cyclo(AT[NMeA]F[NMeL][NMeF][β3hA][dV]))	66	–	20	–	–
CC(C)C[C@H]1C(=O)N(C)[C@@H](Cc2ccccc2)C(=O)N(C)[C@@H](CC(C)C)C(=O)N[C@H](C(=O)N2CCCCC2)CC(=O)N[C@H](C(C)C)C(=O)N[C@@H](C)C(=O)N[C@@H]([C@@H](C)O)C(=O)N(C)[C@@H](C)C(=O)N[C@@H](Cc2ccccc2)C(=O)N1C [DP-78] ([dV]AT[NMeA]F[NMeL][NMeF][NMeL]D-Piperidide; lactam N-9)	–	–	–	57	38
